PMC3402541, “Guanidylation and Tail Effects in Cationic Antimicrobial Lipopeptoids” (PLoS ONE, 2012)
≈ marks a conversion by molar mass, not a printed value.

What was measured:
MRSE CAN-ICU 61589 = type: cell-based, methicillin-resistant S. epidermidis; conditions: CAN-ICU 61589, 24 h
Procedure: (§1) Antimicrobial activity of the purified lipopeptoids was determined without replication against a panel of clinically relevant and standard reference bacterial strains according to CLSI macrobroth standards. Stock solutions at 512 µg/mL were prepared in water, with DMSO as needed, and testing was performed in glass test tubes using Muller-Hinton broth and bacteria adjusted to 5 × 10^5 CFU/mL. Bacteria were incubated with the lipopeptoid of interest for 24 hr at 37°C prior to reading.
(§2) The bacteria Staphylococcus aureus ATCC 29213, methicillin-resistant S. aureus ATCC 33592, Staphylococcus epidermidis ATCC 14990, Enterococcus faecalis ATCC 29212, E. faecium ATCC 27270, Streptococcus pneumoniae ATCC 49619, Escherichia coli ATCC 25922, Pseudomonas aeruginosa ATCC 27853, and Klebsiella pneumoniae ATCC 13883 were acquired from the American Type Culture Collection (ATCC) and used as quality controls. The clinical strains methicillin-resistant S. epidermidis (MRSE) CAN-ICU 61589, E. coli CAN-ICU 61714, E. coli CAN-ICU 63074, P. aeruginosa CAN-ICU 62308, Stenotrophomonas maltophilia CAN-ICU 62584, Acinetobacter baumannii CAN-ICU 63169 were obtained from hospitals across Canada as part of the CAN-ICU studies, while methicillin-susceptible S. epidermidis (MSSE) 81388 was obtained from the 2008 CANWARD study.
(§3) After subculturing the relevant bacteria twice from frozen stock, in vitro activities of the antimicrobials were determined by macrobroth dilution methodology in accordance with the Clinical and Laboratory Standards Institute (CLSI) guidelines (3). The MICs were determined using glass test tubes (2 mL/tube) containing doubling antimicrobial dilutions of cation adjusted Mueller-Hinton broth inoculated to achieve a final concentration of approximately 5 x 10^5 CFU/mL, incubated in ambient air for 24 hr prior to reading. Colony counts were performed periodically to confirm inocula. The ATCC organisms […] ATCC 49619, Staphylococcus aureus ATCC 29213, Enterococcus faecalis ATCC 29212, Escherichia coli ATCC 25922, and Pseudomonas aeruginosa ATCC 27853 were used as quality control and to allow easy comparison to previously tested antimicrobials. Each test in this series was performed without replication. In our experience with cationic amphiphiles the results are accurate to within a single doubling.

S.aureus ATCC 29213 = type: cell-based, Staphylococcus aureus; conditions: ATCC 29213, 24 h
Procedure: as §1, §2, §3

ovine erythrocytes = assay: Haemolytic assay; type: cell-based, sheep; conditions: ovine erythrocytes in Tris buffered saline, 30 minutes, absorbance of supernatant at 540 nm
Procedure: Mammalian cell toxicity was determined by measuring lysis of ovine erythrocytes, a standard model for human cell toxicity. Cells were prewashed with Tris buffered saline and then incubated with a variety of lipopeptoid concentrations for 30 minutes. Following centrifugation, lysis was evaluated by testing the absorbance of the solution at 540 nm, with 0.5% NH4OH used as a positive control.
Toxicity to mammalian cells was determined using a sheep red blood cell (erythrocyte) haemolytic assay (4). Erythrocytes were washed and resuspended in Tris buffered saline prior to use, at a concentration of 1.46 - 4.5 x 10^9 cells/mL (on average 3.08 x 10^9 cells/mL). The cell suspension was diluted with varying concentrations of antimicrobials, from 50 μg/mL to 1 mg/mL and incubated for thirty minutes (final erythrocyte concentration 4.08 x 10^8 cells/mL). The samples were centrifuged following treatment and the absorbance of the supernatant was measured at 540 nm. A solution of 0.5% […] was used as a positive control, with normal buffered solution as the negative control. The toxicity was assessed as a function of percent haemolysis.

MSSE 81388 CANWARD 2008 = type: cell-based, methicillin-susceptible S. epidermidis; conditions: 24 h
Procedure: as §1, §2, §3

K.pneumoniae ATCC 13883 = type: cell-based, Klebsiella pneumoniae; conditions: ATCC 13883, 24 h
Procedure: as §1, §2, §3

MRSA ATCC 33592 = type: cell-based, methicillin-resistant S. aureus; conditions: ATCC 33592, 24 h
Procedure: as §1, §2, §3

[1] = system: A. baumannii CAN-ICU 63169; type: cell-based, Acinetobacter baumannii; conditions: CAN-ICU 63169, 24 h
Procedure: as §1, §2, §3

E.coli CAN-ICU 63074 = type: cell-based, Escherichia coli; conditions: CAN-ICU 63074, 24 h
Procedure: as §1, §2, §3

E.coli CAN-ICU 61714 = type: cell-based, Escherichia coli; conditions: CAN-ICU 61714, 24 h
Procedure: as §1, §2, §3

E.coli ATCC 25922 = type: cell-based, Escherichia coli; conditions: ATCC 25922, 24 h
Procedure: as §1, §2, §3

E. faecalis ATCC 29212 = type: cell-based, Enterococcus faecalis; conditions: ATCC 29212, 24 h
Procedure: as §1, §2, §3

E. faecium ATCC 27270 = type: cell-based; conditions: ATCC 27270, 24 h
Procedure: as §1, §2, §3

S.pneumoniae ATCC 49619 = type: cell-based, Streptococcus pneumoniae; conditions: ATCC 49619, 24 h
Procedure: as §1, §2, §3

[2] = system: S. maltophilia CAN-ICU 62584; type: cell-based, Stenotrophomonas maltophilia; conditions: CAN-ICU 62584, 24 h
Procedure: as §1, §2, §3

P.aeruginosa ATCC 27853 = type: cell-based, Pseudomonas aeruginosa; conditions: ATCC 27853, 24 h
Procedure: as §1, §2, §3

[3] = system: P.aeruginosa CAN-ICU 62308; type: cell-based, Pseudomonas aeruginosa; conditions: CAN-ICU 62308, 24 h
Procedure: as §1, §2, §3

Row | MIC MRSE (MRSE CAN-ICU 61589) | MIC MRSE in the presence of 4% bovine serum albumin (MRSE CAN-ICU 61589) | MIC S.aureus (S.aureus ATCC 29213) | MIC S.aureus in the presence of 4% bovine serum albumin (S.aureus ATCC 29213) | MIC MSSE (MSSE 81388 CANWARD 2008) | MIC MSSE in the presence of 4% bovine serum albumin (MSSE 81388 CANWARD 2008) | MIC K.pneumoniae (K.pneumoniae ATCC 13883) | MIC K.pneumoniae in the presence of 4% bovine serum albumin (K.pneumoniae ATCC 13883) | MIC MRSA (MRSA ATCC 33592) | MIC MRSA in the presence of 4% bovine serum albumin (MRSA ATCC 33592) | MIC A. baumannii [1] | MIC A. baumannii in the presence of 4% bovine serum albumin [1] | MIC E.coli (E.coli CAN-ICU 63074) | MIC E.coli in the presence of 4% bovine serum albumin (E.coli CAN-ICU 63074) | MIC E.coli (E.coli CAN-ICU 61714) | MIC E.coli in the presence of 4% bovine serum albumin (E.coli CAN-ICU 61714) | MIC E.coli (E.coli ATCC 25922) | MIC E.coli in the presence of 4% bovine serum albumin (E.coli ATCC 25922) | MIC E. faecalis (E. faecalis ATCC 29212) | Compound | Percent haemolysis at 100µg/mL of compound (ovine erythrocytes) | further results
1 | 16 µg/mL (≈ 25.6 µM) | 512 µg/mL | 16 µg/mL (≈ 25.6 µM) | 512 µg/mL | 8 µg/mL (≈ 12.8 µM) | 512 µg/mL | 256 µg/mL (≈ 410 µM) | >512 µg/mL | 16 µg/mL (≈ 25.6 µM) | 512 µg/mL | 512 µg/mL (≈ 819 µM) | >512 µg/mL | 64 µg/mL (≈ 102 µM) | >512 µg/mL | 64 µg/mL (≈ 102 µM) | >512 µg/mL | 32 µg/mL (≈ 51.2 µM) | 512 µg/mL | 32 µg/mL (≈ 51.2 µM) | CCCCCCCCCCCCCC(=O)N(CCCCNC(=N)N)CC(=O)NCC(=O)N(CCCCNC(=N)N)CC(N)=O [C14-NhargGNharg] | 55.44% | MIC E. faecalis in the presence of 4% bovine serum albumin (E. faecalis ATCC 29212): 512 µg/mL; MIC E. faecium (E. faecium ATCC 27270): 32 µg/mL (≈ 51.2 µM); MIC E. faecium in the presence of 4% bovine serum albumin (E. faecium ATCC 27270): 512 µg/mL; MIC S.pneumoniae (S.pneumoniae ATCC 49619): 128 µg/mL (≈ 205 µM); MIC S.pneumoniae in the presence of 4% bovine serum albumin (S.pneumoniae ATCC 49619): 512 µg/mL; MIC S. maltophilia [2]: 256 µg/mL (≈ 410 µM); MIC S. maltophilia in the presence of 4% bovine serum albumin [2]: >512 µg/mL; MIC P.aeruginosa (P.aeruginosa ATCC 27853): 64 µg/mL (≈ 102 µM); MIC P.aeruginosa in the presence of 4% bovine serum albumin (P.aeruginosa ATCC 27853): >512 µg/mL; MIC P.aeruginosa [3]: 128 µg/mL (≈ 205 µM); MIC P.aeruginosa in the presence of 4% bovine serum albumin [3]: >512 µg/mL
2 | 16 µg/mL (≈ 21.7 µM) | 256 µg/mL | 16 µg/mL (≈ 21.7 µM) | 256 µg/mL | 8 µg/mL (≈ 10.8 µM) | 512 µg/mL | 256 µg/mL (≈ 347 µM) | 512 µg/mL | 16 µg/mL (≈ 21.7 µM) | 512 µg/mL | 256 µg/mL (≈ 347 µM) | >512 µg/mL | 64 µg/mL (≈ 86.7 µM) | 512 µg/mL | 64 µg/mL (≈ 86.7 µM) | 512 µg/mL | 64 µg/mL (≈ 86.7 µM) | 512 µg/mL | 32 µg/mL (≈ 43.4 µM) | CCCCCCCCCCCCCC(=O)N(CCCCNC(=N)N)CC(=O)N(CCCCNC(=N)N)CC(=O)N(CCCCNC(=N)N)CC(N)=O [C14-NhargNhargNharg] | 20.34% | MIC E. faecalis in the presence of 4% bovine serum albumin (E. faecalis ATCC 29212): 512 µg/mL; MIC E. faecium (E. faecium ATCC 27270): 16 µg/mL (≈ 21.7 µM); MIC E. faecium in the presence of 4% bovine serum albumin (E. faecium ATCC 27270): 256 µg/mL; MIC S.pneumoniae (S.pneumoniae ATCC 49619): 64 µg/mL (≈ 86.7 µM); MIC S.pneumoniae in the presence of 4% bovine serum albumin (S.pneumoniae ATCC 49619): 256 µg/mL; MIC S. maltophilia [2]: 256 µg/mL (≈ 347 µM); MIC S. maltophilia in the presence of 4% bovine serum albumin [2]: >512 µg/mL; MIC P.aeruginosa (P.aeruginosa ATCC 27853): 256 µg/mL (≈ 347 µM); MIC P.aeruginosa in the presence of 4% bovine serum albumin (P.aeruginosa ATCC 27853): >512 µg/mL; MIC P.aeruginosa [3]: 128 µg/mL (≈ 173 µM); MIC P.aeruginosa in the presence of 4% bovine serum albumin [3]: 512 µg/mL
